# Patent US20220177471A1, “N-1 BRANCHED ALKYL SUBSTITUTED IMIDAZO[4,5-C]QUINOLINE COMPOUNDS, COMPOSITIONS, AND METHODS” (3M INNOVATIVE PROPERTIES COMPANY, priority 2019, published 2022)
# Key:
# human TLR7 = biological target: T1, human TLR7 (Homo sapiens, UniProt Q9NYK1); experiment: TLR activation, HEK-BLUE-hTLR7 SEAP reporter cells; type: cell-based; conditions: 16-20 hours, lowest concentration giving SEAP response at least 2x vehicle control, tested 0.01-30 micromolar
# T1 construct: host or cells: HEK293 (HEK-BLUE-hTLR7)
# T1 sequence (Q9NYK1 27-1049): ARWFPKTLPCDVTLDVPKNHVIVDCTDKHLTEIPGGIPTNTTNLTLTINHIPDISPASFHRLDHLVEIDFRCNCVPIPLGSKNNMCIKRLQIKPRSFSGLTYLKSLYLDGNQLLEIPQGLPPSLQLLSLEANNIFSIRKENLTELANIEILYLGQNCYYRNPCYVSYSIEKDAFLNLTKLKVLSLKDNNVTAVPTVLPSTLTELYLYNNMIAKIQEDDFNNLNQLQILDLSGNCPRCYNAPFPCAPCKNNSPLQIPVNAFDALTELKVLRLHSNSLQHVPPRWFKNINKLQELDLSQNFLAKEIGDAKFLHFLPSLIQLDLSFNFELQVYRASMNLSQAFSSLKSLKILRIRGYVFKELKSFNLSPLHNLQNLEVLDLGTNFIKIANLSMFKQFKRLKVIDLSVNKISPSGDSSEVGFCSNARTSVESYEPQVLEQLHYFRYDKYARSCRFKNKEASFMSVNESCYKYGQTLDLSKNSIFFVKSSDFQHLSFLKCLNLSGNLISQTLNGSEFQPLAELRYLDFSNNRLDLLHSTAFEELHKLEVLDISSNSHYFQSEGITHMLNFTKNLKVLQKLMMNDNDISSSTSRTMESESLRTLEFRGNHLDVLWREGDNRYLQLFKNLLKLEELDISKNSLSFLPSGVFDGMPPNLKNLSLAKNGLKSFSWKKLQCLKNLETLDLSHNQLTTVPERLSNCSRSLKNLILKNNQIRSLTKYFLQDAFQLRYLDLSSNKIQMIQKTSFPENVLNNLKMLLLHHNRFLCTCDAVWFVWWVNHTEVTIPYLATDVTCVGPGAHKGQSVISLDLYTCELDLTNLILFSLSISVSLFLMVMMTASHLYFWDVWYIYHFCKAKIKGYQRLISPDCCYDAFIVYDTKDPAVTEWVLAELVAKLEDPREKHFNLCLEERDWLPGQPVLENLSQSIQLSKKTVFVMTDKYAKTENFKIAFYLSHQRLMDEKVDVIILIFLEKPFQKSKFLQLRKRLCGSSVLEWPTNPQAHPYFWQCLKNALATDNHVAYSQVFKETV
# Procedure: (§1) HEK-BLUE-hTLR7 or hTLR8 reporter cells were obtained from InvivoGen, San Diego, Calif. According to the manufacturer's description, these reporter cells were prepared by co-transfection of HEK293 cells with an inducible secreted embryonic alkaline phosphatase (SEAP) reporter gene and either the human TLR7 or TLR8 gene. The SEAP reporter gene was placed under the control of an IFN-β minimal promoter fused to five NF-κB and AP-1-binding sites. In the presence of a TLR ligand, activation of NF-κB and AP-1 occurs, resulting in a corresponding increase in SEAP levels.
# (§2) In the assay, the HEK cells were grown and maintained using standard cell culture techniques in a growth medium that contained Dulbecco's Modified Eagle Medium (ThermoFisher Scientific Incorporated, Waltham, Mass.) supplemented with 1% penicillin/streptomycin and 10% heat-inactivated Gibco fetal bovine serum (ThermoFisher Scientific). Each compound was solubilized in DMSO to create a 3 mM stock solution. The stock solution was then further diluted with the growth medium to prepare serial dilutions. Each test compound was tested at a concentration of 30, 10, 3.3, 1.1, 0.37, 0.12, 0.04, and 0.01 micromolar using a 96-well format with 5×10^4 cells and 200 microliters of growth medium per well.
# (§3) For each compound, hTLR7, hTLR8, and their respective null control HEK cells were screened. DMSO serially diluted into the growth medium served as the vehicle control. Cell culture supernatants containing the SEAP reporter were collected after an incubation period of 16-20 hours in a cell culture incubator (37° C. and 5% CO2), and either analyzed immediately or stored at −80° C. SEAP levels were measured using the colorimetric enzyme assay (QUANTI-BLUE (InvivoGen) according to manufacturer's instructions.
# (§4) Specifically, the minimum effective concentration of each compound (micromolar) was determined as the lowest concentration of the compound that produced a SEAP expression response at least 2× greater than that observed with the vehicle control wells.
# human TLR8 = biological target: T2, human TLR8 (Homo sapiens, UniProt Q9NR97); experiment: TLR activation, HEK-BLUE-hTLR8 SEAP reporter cells; type: cell-based; conditions: 16-20 hours, lowest concentration giving SEAP response at least 2x vehicle control, tested 0.01-30 micromolar
# T2 construct: host or cells: HEK293 (HEK-BLUE-hTLR8)
# T2 sequence (Q9NR97 27-1041): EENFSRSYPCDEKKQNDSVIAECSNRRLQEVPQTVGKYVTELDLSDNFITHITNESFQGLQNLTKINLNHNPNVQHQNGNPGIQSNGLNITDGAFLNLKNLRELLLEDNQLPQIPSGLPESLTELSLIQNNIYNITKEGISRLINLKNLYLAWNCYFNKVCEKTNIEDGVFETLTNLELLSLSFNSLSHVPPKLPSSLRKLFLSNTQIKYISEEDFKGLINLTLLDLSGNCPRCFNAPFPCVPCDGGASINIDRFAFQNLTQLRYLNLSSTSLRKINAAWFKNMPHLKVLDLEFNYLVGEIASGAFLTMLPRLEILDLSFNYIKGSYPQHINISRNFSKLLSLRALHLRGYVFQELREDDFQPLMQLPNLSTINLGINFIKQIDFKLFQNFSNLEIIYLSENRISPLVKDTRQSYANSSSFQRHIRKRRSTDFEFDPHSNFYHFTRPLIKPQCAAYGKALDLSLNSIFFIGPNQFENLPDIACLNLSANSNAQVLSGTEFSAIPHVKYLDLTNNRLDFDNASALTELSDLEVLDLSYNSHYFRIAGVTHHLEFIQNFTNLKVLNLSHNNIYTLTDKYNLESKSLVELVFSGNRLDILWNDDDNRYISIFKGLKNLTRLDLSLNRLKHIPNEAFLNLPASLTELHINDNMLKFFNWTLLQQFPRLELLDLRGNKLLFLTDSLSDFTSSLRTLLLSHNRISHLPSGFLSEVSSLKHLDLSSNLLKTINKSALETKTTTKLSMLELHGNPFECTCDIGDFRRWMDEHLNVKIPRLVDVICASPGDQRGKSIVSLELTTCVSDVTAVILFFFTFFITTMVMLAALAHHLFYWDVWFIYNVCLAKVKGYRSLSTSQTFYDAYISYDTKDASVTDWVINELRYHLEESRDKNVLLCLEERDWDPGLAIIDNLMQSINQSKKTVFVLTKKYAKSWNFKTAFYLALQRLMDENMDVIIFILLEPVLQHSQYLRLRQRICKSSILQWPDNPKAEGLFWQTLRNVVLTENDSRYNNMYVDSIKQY
# Procedure: as §1, §2, §3, §4
SMILES,MEC to Produce TLR Activation: TLR 7 (human TLR7) [µM],MEC to Produce TLR Activation: TLR 8 (human TLR8) [µM]
"CCC[C@H](n1cnc2c(N)nc3ccccc3c21)C(C)(C)O [Example 14, (3S)-3-(4-aminoimidazo[4,5-c]quinolin-1-yl)-2-methyl-hexan-2-ol]",>30,>30
"CCCC[C@@H](n1cnc2c(N)nc3ccccc3c21)C(C)(C)O [Example 15, (3R)-3-(4-aminoimidazo[4,5-c]quinolin-1-yl)-2-methyl-heptan-2-ol]",0.01,10
"CCCC[C@H](n1cnc2c(N)nc3ccccc3c21)C(C)(C)O [Example 16, (3S)-3-(4-aminoimidazo[4,5-c]quinolin-1-yl)-2-methyl-heptan-2-ol]",>30,>30
"CC(C)C[C@@H](n1cnc2c(N)nc3ccccc3c21)C(C)(C)O [Example 17, (3R)-3-(4-aminoimidazo[4,5-c]quinolin-1-yl)-2,5-dimethyl-hexan-2-ol]",1.1,>30
"CC(C)C[C@H](n1cnc2c(N)nc3ccccc3c21)C(C)(C)O [Example 18, (3S)-3-(4-aminoimidazo[4,5-c]quinolin-1-yl)-2,5-dimethyl-hexan-2-ol]",>30,>30
"CCC(O)(CC)[C@@H](C)n1cnc2c(N)nc3ccccc3c21 [Example 19, (2R)-2-(4-aminoimidazo[4,5-c]quinolin-1-yl)-3-ethyl-pentan-3-ol]",3.3,>30
"C[C@@H](n1cnc2c(N)nc3ccccc3c21)C(C)(C)F [Example 20, 1-[(1R)-2-fluoro-1,2-dimethyl-propyl]imidazo[4,5-c]quinolin-4-amine]",3.3,>30
"C[C@H](n1cnc2c(N)nc3ccccc3c21)C(C)(C)F [Example 21, 1-[(1S)-2-fluoro-1,2-dimethyl-propyl]imidazo[4,5-c]quinolin-4-amine]",>30,>30
